Test results as given in US20080242674A1, “Medicine For Prevention or Treatment of Frequent Urination or Urinary Incontinence” (priority 2004, published 2008).
Counter-ions that a name gives are not always drawn.

Legend:
anesthetized rats = test: Intra-bladder pressure measurement in anesthetized rat; type: in vivo; conditions: male rats, urethane anesthesia, after midodorin hydrochloride 3 mg/kg iv, isoproterenol 10 mg/kg iv = 100%
From the text: Male rats were anesthetized with urethane. To each rat, tracheal and femoral vein cannulas were inserted. After midline abdominal incision, the ureter on either side was ligated and cut at the proximal end of the ligated portion. After the urethra was ligated, a cannula was inserted into the urinary bladder through the top of the bladder dome. Through a three-way connecter, warmed saline was instilled to adjust the intra-bladder pressure to about 10 cmH2O. The other end of the bladder cannula was connected to a pressure transducer, and intra-bladder pressure was measured. Three mg/kg of midodorin hydrochloride was injected through the femoral vein cannula. Ten minutes after the midodorin hydrochloride injection, tamsulosin hydrochloride (5 mg/kg, iv) or compound 1 (10 mg/kg, iv) was intravenously injected, and the decreasing effect by single administration of each drug was evaluated. Next, 15 minutes after administration, compound 1 (10 mg/kg, iv) was intravenously injected to the animal treated with tamsulosin hydrochloride (5 mg/kg, iv) to evaluate the combinational effect. At the last, 10 mg/kg of isoproterenol was intravenously injected, and the maximum decreasing effect was set as 100% .

[1] = tested on: acetic acid-stimulated rats; test: Micturition interval measurement in acetic acid-stimulated rat; type: in vivo; conditions: female rats, urethane anesthesia, 0.25% acetic acid instilled into the bladder, 30 minutes after administration
From the text: Female rats were anesthetized with urethane. After the midline abdominal was incised, and the ureter on either side was ligated and cut, the renal end was kept open. A cannula was inserted into the urinary bladder through the top of the bladder dome and connected to a three-way connecter to establish routes for the intra-bladder pressure measurement and instillation into the bladder. The other end of the bladder cannula was connected to a pressure transducer, and intra-bladder pressure was measured. Saline was continuously instilled into the bladder (3.6 mL/hr) . […] After stable micturition intervals were obtained, silodosin (0.03 mg/kg), (−)-2-[4-[2-[[(1S, 2R)-2-hydroxy-2-(4-hydroxyphenyl)-1-methylethyl]amino]ethyl]-2,5-dimethylphenoxy] acetic acid (hereinafter referred to as “compound 2”) (1 mg/kg) or both of silodosin (0.03 mg/kg) and compound 2 (1 mg/kg) were injected through a femoral venous cannula respectively, and time from when a micturition occurred till when the next micturition was induced (micturition interval) was measured. Mean micturition intervals for 2 times before each drug administration and for all micturition which occurred in 30 minutes after the drug administration were calculated, and the change to the mean value before administration was evaluated. […]

## CCOC(=O)COc1cc(C)c(CCN[C@@H](C)[C@H](O)c2ccc(O)cc2)cc1C [compound 1, ethyl (−)-2-[4-[2-[[(1S, 2R) -2-hydroxy-2-(4-hydroxyphenyl)1-methylethyl]amino]ethyl]-2,5-dimethyl-phenoxy]acetate]
Anesthetized rats; compound 1 10 mg/kg iv alone
  effect decreasing the intra-bladder pressure (percentage of the maximum decreasing effect by isoproterenol): 37%

## Cc1cc(OCC(=O)O)c(C)cc1CCN[C@@H](C)[C@H](O)c1ccc(O)cc1 [compound 2, (−)-2-[4-[2-[[(1S, 2R)-2-hydroxy-2-(4-hydroxyphenyl)-1-methylethyl]amino]ethyl]-2,5-dimethylphenoxy] acetic acid]
[1]; compound 2 1 mg/kg iv alone
  change in the micturition interval (percentage of the mean value before administration): 116.3%

## C[C@H](Cc1cc2c(c(C(N)=O)c1)N(CCCO)CC2)NCCOc1ccccc1OCC(F)(F)F [silodosin]
[1]; silodosin 0.03 mg/kg iv alone
  change in the micturition interval (percentage of the mean value before administration): 115.2%

## CCOc1ccccc1OCCN[C@H](C)Cc1ccc(OC)c(S(N)(=O)=O)c1 [tamsulosin hydrochloride]
Anesthetized rats; tamsulosin hydrochloride 5 mg/kg iv alone
  effect decreasing the intra-bladder pressure (percentage of the maximum decreasing effect by isoproterenol): 26%
